As usually defined, the IC50 is the midpoint of a concentration-inhibition curve.

We go through eight molecules from patent publication EP1975159A1, “2,3,4,9-Tetrahydro-1H-carbazoles” (Bayer Schering Pharma Aktiengesellschaft, priority 2007, dated 2008).

For this assay, the target named is T1, human FSH receptor (Homo sapiens, UniProt P23945).
T1 construct: expressed in transfected cells; host or cells: CHO cells (hFSHR clone 16)
T1 sequence (P23945 18-695): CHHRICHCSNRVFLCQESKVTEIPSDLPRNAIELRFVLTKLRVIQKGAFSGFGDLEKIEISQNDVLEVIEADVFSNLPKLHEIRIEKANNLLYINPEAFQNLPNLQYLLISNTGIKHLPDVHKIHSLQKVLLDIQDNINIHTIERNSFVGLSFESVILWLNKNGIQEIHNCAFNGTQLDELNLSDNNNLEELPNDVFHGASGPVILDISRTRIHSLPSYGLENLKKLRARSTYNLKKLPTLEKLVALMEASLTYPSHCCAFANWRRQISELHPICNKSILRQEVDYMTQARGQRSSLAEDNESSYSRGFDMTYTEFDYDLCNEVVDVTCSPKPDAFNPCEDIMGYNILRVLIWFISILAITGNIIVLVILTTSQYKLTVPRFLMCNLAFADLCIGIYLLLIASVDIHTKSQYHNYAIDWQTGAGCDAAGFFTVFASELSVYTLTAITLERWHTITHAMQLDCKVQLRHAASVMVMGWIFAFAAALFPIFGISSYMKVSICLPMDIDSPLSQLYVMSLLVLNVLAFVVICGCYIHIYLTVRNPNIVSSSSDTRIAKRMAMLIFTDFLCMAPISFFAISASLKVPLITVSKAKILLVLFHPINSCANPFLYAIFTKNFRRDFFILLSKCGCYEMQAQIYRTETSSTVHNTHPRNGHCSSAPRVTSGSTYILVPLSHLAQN
As to the kind of experiment: HTRF assay for measuring cAMP in cells (FSH antagonism). It is filed as cell-based. The following applies: FSH-antagonistic effect; CHO cells stably transfected with the human FSH receptor (hFSHR clone 16); in the presence of 1 e-9 mol/l hFSH; 37°C for 2h. Here is the method:
HTRF assay for measuring cAMP in cells
The method is based on a competitive immunoassay between native cAMP, which has been produced by the cells, and cAMP which is labelled with XL665. The tracer binding was visualized by a monoclonal antibody, anti-cAMP labelled with cryptate [HTRF = homogeneous time-resolved fluorescence].
The specific signal is inversely proportional to the cAMP concentration of the samples employed.
The 665nm/ 620nm fluorescence ratio was evaluated.
The following material was used: 96-well plates for the tissue culture, 96-well plates with black edge and black base (e.g. Fluotrac 600 from Greiner), 96-well plates for the substance dilutions of polypropylene and cAMP Femtomolar (4000wells Kit, CIS Bio International # 62AM1PEC).
The following reagents were used: BSA (bovine serum albumin) Fraction V protease-free, IBMX (3-isobutyl-1-methylxanthine), hFSH (human follicle stimulating hormone), Triton X-100 analytical grade, potassium fluoride analytical grade, G 418 (Geneticin) and Accutase.
Buffer 1 (washing and testing buffer) contained PBS, 1 mM CaCl2, 1 mM MgCl2, 0.2% glucose; 0.1% BSA, 1 mM IBMX.
Buffer 2 (2x lysis buffer) contained 1% Triton X-100 in PBS (without CaCl2 and MgCl2).
Buffer 3 (assay buffer) contained 50 mM potassium phosphate buffer (pH 7.0); 800 mM potassium fluoride; 0.2% BSA (always added fresh).
On day 1, the cells were seeded in 96-well plates (3x10^4 cells per well hFSHR clone 16 cells (CHO cells stably transfected with the human FSH receptor in 150 µl of medium). The next day, test substance dilutions were made up. For this purpose, all the substances were diluted in ice-cold buffer 1 (with or without hFSH), and the substance dilutions were placed on ice until applied to the cells.
The cell supernatant was then aspirated off, and the cells were washed 2x with 200 µl of buffer 1. The cells were treated with 60 µl of the appropriate substance concentrations at 37°C for 2h. The cells were then lysed with 60 µl of buffer 2 (put onto the supernatant) (on a plate shaker at RT for 30 min).
The test conjugates (XL-665 and anti-cAMP cryptate) were diluted in buffer 3 in accordance with the manufacturers' information. The actual mixture for measurement was pipetted into a black 96-well plate (in each case 15 µl of the cell lysate diluted with 35 µl of buffer 1; firstly 25 µl of XL-665 conjugate were pipetted and, after 10 min, 25 µl of the anti-cAMP cryptate were added). This is followed by incubation at RT for 90 minutes. The measurement was carried out in a PheraStar (BMG).
Tissue culture conditions
• 1) hFSHr clone 16 Ham's F12 PSG 10% FCS 700 µg/ml G 418 (Geneticin) from PAA.
Dose-effect curve (hFSH) for the human receptor: 1 e-8, 3e-9, 1 e-9, 3e-10, 1 e-1 0, 3e-11, 1 e-11, 3e-12 mol/l.
The test substances were employed in suitable dilutions in the absence (test for agonism) and in the presence of 1 e-9 mol/l hFSH.
The values of the well ratio were averaged and then entered directly in SigmaPlot versus the concentrations. The maximum and minimum values were determined for each plate, and half the difference is to be regarded as IC50.
In general terms: Time-resolved FRET reads energy transfer from a long-lived donor to a nearby acceptor.

For the molecule `COc1ccc2nc(-c3ccccc3)cc(C(=O)NC3(CO)CCc4[nH]c5cc(Cl)c(F)cc5c4C3)c2c1` (centres unmarked) [Example 13, 6-Methoxy-2-phenyl-quinoline-4-carboxylic acid (7-chloro-6-fluoro-3-hydroxymethyl-2,3,4,9-tetrahydro-1 H-carbazol-3-yl)-amide], the IC50 worked out at 8000 nM.

Consider `COc1ccc(-c2ccc(OC(C)C)c(C(=O)NC3(CO)CCc4[nH]c5c(C)ccc(C)c5c4C3)c2)cc1OC` (centres unmarked) [Example 19, 4-Isopropoxy-3',4'-dimethoxy-biphenyl-3-carboxylic acid (3-hydroxymethyl-5,8-dimethyl-2,3,4,9-tetrahydro-1H-carbazol-3-yl)-amide], for which the concentration for half-maximal inhibition (IC50) turned out to be 4000 nM.

Turning to `CNC(=O)c1ccc(-c2ccc(OC(C)C)c(C(=O)NC3(CO)CCc4[nH]c5c(Cl)ccc(Cl)c5c4C3)c2)cc1Cl` (centres unmarked) [Example 25, 3'-Chloro-4-isopropoxy-biphenyl-3,4'-dicarboxylic acid 3-[(5,8-dichloro-3-hydroxymethyl-2,3,4,9-tetrahydro-1 H-carbazol-3-yl)-amide] 4'-methyl-amide], the IC50 stood at 900 nM.

Turning to `CNC(=O)c1ccc(-c2ccc(OC(C)C)c(C(=O)NC3(CO)CCc4[nH]c5c(Cl)cccc5c4C3)c2)cc1Cl` (centres unmarked) [Example 30, 3'-Chloro-4-isopropoxy-biphenyl-3,4'-dicarboxylic acid 3-[(8-chloro-3-hydroxymethyl-2,3,4,9-tetrahydro-1H-carbazol-3-yl)-amide] 4'-methylamide], the IC50 worked out at 200 nM.

`CNC(=O)c1ccc(-c2ccc(OC(C)C)c(C(=O)NC3(CO)CCc4[nH]c5ccc(C)cc5c4C3)c2)cc1Cl` (centres unmarked) [Example 32, 3'-Chloro-4-isopropoxy-biphenyl-3,4'-dicarboxylic acid 3-[(3-hydroxymethyl-6-methyl-2,3,4,9-tetrahydro-1H-carbazol-3-yl)-amide] 4'-methylamide]: the IC50 came out at 3000 nM.

Take `CNC(=O)c1ccc(-c2ccc(OC(C)C)c(C(=O)NC3(CO)CCc4[nH]c5ccc(F)cc5c4C3)c2)cc1Cl` (centres unmarked) [Example 33, 3'-Chloro-4-isopropoxy-biphenyl-3,4'-dicarboxylic acid 3-[(6-fluoro-3-hydroxymethyl-2,3,4,9-tetrahydro-1H-carbazol-3-yl)-amide] 4'-methylamide]: the IC50 was determined as 70 nM.

As for `CNC(=O)c1ccc(-c2ccc(OC(C)C)c(C(=O)NC3(CO)CCc4[nH]c5ccc(Cl)cc5c4C3)c2)cc1Cl` (centres unmarked) [Example 34, 3'-Chloro-4-isopropoxy-biphenyl-3,4'-dicarboxylic acid 3-[(6-chloro-3-hydroxymethyl-2,3,4,9-tetrahydro-1 H-carbazol-3-yl)-amide] 4'-methylamide], the concentration for half-maximal inhibition (IC50) is 1500 nM.

Regarding `Cc1ccc2[nH]c3c(c2c1Cl)CC(CO)(NC(=O)c1cc(-c2cc4ccccc4o2)ccc1OC(C)C)CC3` (centres unmarked) [Example 40, 5-Benzofuran-2-yl-N-(5-chloro-3-hydroxymethyl-6-methyl-2,3,4,9-tetrahydro-1H-carbazol-3-yl)-2-isopropoxy-benzamide], the IC50 stood at 750 nM.
